Data: patent US20260258029A1, “CHROMANE AMIDINE MONOBACTAM COMPOUNDS FOR THE TREATMENT OF BACTERIAL INFECTIONS” (priority 2022, published 2026)

Legend:
Format in all cases: cell-based
[1] = test system: Acinetobacter baumannii expressing TEM-1, AmpC, and Oxa-24/40 (CL6188); details: lowest concentration inhibiting 95% of bacterial growth; BLi relebactam 4 μg/mL; 35±2° C., 22 hours; OD600
Description: (§1) The concentrations of compounds required to inhibit the growth of various strains of bacteria were determined in an assay that assessed bacterial growth by measuring optical density at 600 nm (OD600). The bacterial strains tested included the clinical strains Escherichia coli expressing NDM-1 (CLB30016), Klebsiella pneumoniae expressing KPC-1 (CL6569), Acinetobacter baumannii expressing TEM-1, AmpC, and Oxa-24/40 (CL6188) and Pseudomonas aeruginosa expressing AmpC (CL5701). All compounds were tested in the presence of a R lactamase inhibitor (BLi, Relebactam) in 384-well microplates.
(§2) The clinical strains were stored as frozen single use stocks, thawed and diluted into 1.1× cation-adjusted Mueller-Hinton II broth to achieve approximately 2×10^5 CFU/mL. Test compounds were dissolved in DMSO and diluted 1:50 in the assay, resulting in a final concentration range of 100 μM to 0.098 μM. On the day of the assay, 1 μL of test compound was added to the plate followed by 4 μL of 50 μg/mL BLi in MOPS buffer and 45 μL of diluted bacteria. Plates were centrifuged at 1000 rpm for 30 seconds, shaken at approximately 800 rpm for 1 minute, and incubated at 35±2° C. for 22 hours. The concentration of BLi used in the assay was 4 μg/mL. At the end of the incubation, absorbance at 600 nm was determined using a spectrophotometer. Inhibition was quantitated by identifying the lowest concentration of test compound that was required to inhibit 95% of the growth of the bacteria. The results for Examples 1-39 are reported in Table I, expressed as the concentration of compound that inhibited 95% of bacterial growth (Minimum Inhibitory Threshold Concentration; MITC95).

[2] = test system: Pseudomonas aeruginosa expressing AmpC (CL5701); experiment: Growth inhibitory concentration (OD600), P. aeruginosa CL5701, with relebactam; details: lowest concentration inhibiting 95% of bacterial growth, BLi relebactam 4 μg/mL, 35±2° C., 22 hours
Description: as §1, §2

[3] = test system: Escherichia coli expressing NDM-1 (CLB30016); experiment: Growth inhibitory concentration (OD600), E. coli CLB30016, with relebactam; details: lowest concentration inhibiting 95% of bacterial growth, BLi relebactam 4 μg/mL, 35±2° C., 22 hours
Description: as §1, §2

Row | Compound | AB—CL6188 MITC95 [1] [µM] | PA—CL5701 MITC95 [2] [µM] | EC—CLB30016 MITC95 [3] [µM]
1 | CC1(C)[C@H](NC(=O)/C(=N\O[C@](C)(C(=O)O)[C@H]2CCc3cc(C(=N)NC[C@H]4C[C@](N)(CO)C4)ccc3O2)c2csc(N)n2)C(=O)N1OS(=O)(=O)O [Compound 70, (S)-2-((R)-6-(N-(((1s,3S)-3-amino-3-(hydroxymethyl)cyclobutyl)methyl)-carbamimidoyl)-chroman-2-yl)-2-((((Z)-1-(2-aminothiazol-4-yl)-2-(((S)-2,2-dimethyl-4-oxo-1-(sulfooxy)-azetidin-3-yl)amino)-2-oxoethylidene)amino)oxy)propanoic acid] | 6.25 | 1.563 | 6.25
2 | CC1(C)[C@H](NC(=O)/C(=N\O[C@](C)(C(=O)O)[C@H]2CCc3cc(C(=N)NC[C@H]4C[C@@](N)(CO)C4)ccc3O2)c2csc(N)n2)C(=O)N1OS(=O)(=O)O [Compound 71, (S)-2-((R)-6-(N-(((1r,3R)-3-amino-3-(hydroxymethyl)cyclobutyl)methyl)-carbamimidoyl)-chroman-2-yl)-2-((((Z)-1-(2-aminothiazol-4-yl)-2-(((S)-2,2-dimethyl-4-oxo-1-(sulfooxy)-azetidin-3-yl)amino)-2-oxoethylidene)amino)oxy)propanoic acid] | 3.125 | 1.563 | 6.25
3 | tert-butyl (S)-2-((((Z)-1-(2-((tert-butoxycarbonyl)amino)thiazol-4-yl)-2-(((S)-2,2-dimethyl-4-oxo-1-(sulfooxy)azetidin-3-yl)amino)-2-oxoethylidene)amino)oxy)-2-((R)-6-(N—(((S)-morpholin-2-yl)methyl)carbamimidoyl)chroman-2-yl)propanoate [Compound 32] | 12.5 | 3.125 | 6.25
